Each structure is given as a SMILES string.

The record followed here is patent US7208612B2 (priority 2001, dated 2007).

In one assay the test system is V. harveyi LuxS- strain. Format: cell-based, Vibrio harveyi.
In assay [1] the test system is V. harveyi LuxP+, LuxS+ reporter strain (AI-2 detection system). As to the kind of experiment: Bioluminescence (light production) bioassay in LuxP+, LuxS+ reporter strain that produces its own AI-2. The format is cell-based, Vibrio harveyi.

As for `C[C@@H](O)CC(=O)N[C@H]1CCOC1=O` [AI-1], in the assay on V. harveyi LuxS- strain (latter strains (incl. LuxS-), same experimental conditions), the response to autoinducer entry was “wild-type responses”.

In the case of `OB(O)O` [Boric acid], in assay [1] (addition of 1 mM boric acid during delay period), the “induction of light production” value is given as “substantial induction”. The “induction of light production (fold)” value in assay [1] (boric acid concentrations as low as 10 μM) is on record as 10 fold. Also, the effect on bioluminescence entry with V. harveyi LuxS- strain (LuxS- strain) is listed as “no effect”.
